Columns and labels:
[1] = Antiproliferative activity against human MGC803 cells after 48 hrs by MTT assay; type: functional, cell-based; settings: MGC-803, 48 h
[2] = Antiproliferative activity against human SGC7901 cells after 48 hrs by MTT assay; type: functional, cell-based; settings: SGC-7901, 48 h
[3] = target: Telomerase reverse transcriptase (Homo sapiens, UniProt O14746); assay: Inhibition of telomerase in human MGC803 cells after 24 hrs by TRAP-PCR-ELISA method; type: cell-based, MGC-803
[4] = tested on: HepG2; assay: Antiproliferative activity against human HepG2 cells after 48 hrs by MTT assay; type: functional, cell-based; settings: HepG2, 48 h

Sequence of Telomerase reverse transcriptase (O14746 whole entry): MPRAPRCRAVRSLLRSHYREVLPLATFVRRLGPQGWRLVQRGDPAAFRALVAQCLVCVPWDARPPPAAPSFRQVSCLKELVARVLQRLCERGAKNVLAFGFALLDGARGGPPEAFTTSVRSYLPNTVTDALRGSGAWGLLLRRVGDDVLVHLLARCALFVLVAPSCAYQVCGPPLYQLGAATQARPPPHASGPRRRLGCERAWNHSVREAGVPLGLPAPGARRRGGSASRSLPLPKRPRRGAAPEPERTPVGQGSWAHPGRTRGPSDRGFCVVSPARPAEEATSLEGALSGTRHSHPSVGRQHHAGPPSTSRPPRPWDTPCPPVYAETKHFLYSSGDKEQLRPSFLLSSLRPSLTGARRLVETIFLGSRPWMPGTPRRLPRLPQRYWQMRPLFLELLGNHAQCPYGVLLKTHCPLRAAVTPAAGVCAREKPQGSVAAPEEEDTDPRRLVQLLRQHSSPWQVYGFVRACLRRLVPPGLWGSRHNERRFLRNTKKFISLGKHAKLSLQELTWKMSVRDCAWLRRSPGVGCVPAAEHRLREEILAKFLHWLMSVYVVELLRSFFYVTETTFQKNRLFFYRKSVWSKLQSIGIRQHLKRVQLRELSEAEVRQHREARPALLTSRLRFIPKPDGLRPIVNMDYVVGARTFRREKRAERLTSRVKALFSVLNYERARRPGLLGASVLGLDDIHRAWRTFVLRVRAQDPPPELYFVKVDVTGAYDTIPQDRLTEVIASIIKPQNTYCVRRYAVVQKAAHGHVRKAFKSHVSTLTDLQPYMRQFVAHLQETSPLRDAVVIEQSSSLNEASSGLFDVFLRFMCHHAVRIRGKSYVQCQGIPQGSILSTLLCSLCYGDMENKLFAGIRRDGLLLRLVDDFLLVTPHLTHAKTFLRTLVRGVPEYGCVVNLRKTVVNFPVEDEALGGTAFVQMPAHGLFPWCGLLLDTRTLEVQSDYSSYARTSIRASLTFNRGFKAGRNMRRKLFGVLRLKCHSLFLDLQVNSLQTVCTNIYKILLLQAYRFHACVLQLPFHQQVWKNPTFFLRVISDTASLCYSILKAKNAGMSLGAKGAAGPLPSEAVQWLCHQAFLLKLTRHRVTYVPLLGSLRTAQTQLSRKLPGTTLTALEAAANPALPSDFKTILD

SMILES: CC1=NN(C(=O)c2ccc(F)cc2)C(c2ccccc2O)C1 (stereo not given)
- EC50 [1]: 35.4 µM
- EC50 [2]: 50.3 µM
- IC50 [3]: 29.8 µM
- EC50 [4]: 39.2 µM

SMILES: CC1=NN(C(=O)CBr)C(c2ccccc2O)C1 (stereo not given)
- EC50 [1]: 3.65 µM
- EC50 [2]: 4.18 µM
- EC50 [4]: 14.4 µM

SMILES: CC1=NN(C(=O)C(F)(F)F)C(c2ccccc2O)C1 (stereo not given)
- EC50 [1]: 2.89 µM
- EC50 [2]: 2.06 µM
- IC50 [3]: 1.86 µM
- EC50 [4]: 4.8 µM

SMILES: CC1=NN(C(=O)CCl)C(c2cc(F)ccc2O)C1 (stereo not given)
- EC50 [1]: 6.87 µM
- EC50 [2]: 7 µM
- EC50 [4]: 4.21 µM

SMILES: CC1=NN(S(=O)(=O)c2ccc(Cl)cc2)C(c2cc(Br)ccc2O)C1 (stereo not given)
- EC50 [1]: > 60 µM
- EC50 [2]: > 60 µM
- EC50 [4]: > 60 µM

SMILES: CC1=NN(S(=O)(=O)c2ccc(F)cc2)C(c2cc(Br)ccc2O)C1 (stereo not given)
- EC50 [1]: 15.5 µM
- EC50 [2]: > 60 µM
- EC50 [4]: 50.1 µM

SMILES: CC1=NN(S(=O)(=O)c2ccccc2I)C(c2cc(Br)ccc2O)C1 (stereo not given)
- EC50 [1]: 52.5 µM
- EC50 [2]: > 60 µM
- EC50 [4]: > 60 µM

SMILES: CC1=NN(S(=O)(=O)c2ccccc2)C(c2cc(Br)ccc2O)C1 (stereo not given)
- EC50 [1]: > 60 µM
- EC50 [2]: 55.6 µM
- EC50 [4]: > 60 µM

SMILES: CC1=NN(S(=O)(=O)c2ccc([N+](=O)[O-])cc2)C(c2cc(Br)ccc2O)C1 (stereo not given)
- EC50 [1]: 22.2 µM
- EC50 [2]: 27.3 µM
- EC50 [4]: > 60 µM

SMILES: CC[n+]1c(-c2ccccc2)c2cc(N)ccc2c2ccc(N)cc21 [HOMIDIUM BROMIDE]
- IC50 [3]: 2.18 µM

SMILES: CC1=NN(S(=O)(=O)c2ccccc2C)C(c2cc(Br)ccc2O)C1 (stereo not given)
- EC50 [1]: > 60 µM
- EC50 [2]: 48.1 µM
- EC50 [4]: 39.3 µM

SMILES: COc1ccc(C(=O)N2N=C(C)CC2c2ccccc2O)cc1 (stereo not given)
- EC50 [1]: 38.5 µM
- EC50 [2]: 45.7 µM
- IC50 [3]: 25 µM
- EC50 [4]: 40.3 µM

SMILES: O=c1[nH]cc(F)c(=O)[nH]1 [FLUOROURACIL]
- EC50 [1]: 3.35 µM
- EC50 [2]: 7.03 µM
- EC50 [4]: 2.21 µM

SMILES: CC1=NN(C(=O)CCl)C(c2cc(Cl)ccc2O)C1 (stereo not given)
- EC50 [1]: 12.2 µM
- EC50 [2]: 14 µM
- EC50 [4]: 20.3 µM

SMILES: COc1ccc(S(=O)(=O)N2N=C(C)CC2c2cc(Br)ccc2O)cc1 (stereo not given)
- EC50 [1]: 20.3 µM
- EC50 [2]: 21.1 µM
- EC50 [4]: 38.2 µM

SMILES: CC1=NN(C(=O)CCl)C(c2cc(Br)ccc2O)C1 (stereo not given)
- EC50 [1]: 10.5 µM
- EC50 [2]: 9.21 µM
- EC50 [4]: 12.3 µM

SMILES: CC1=NN(S(=O)(=O)c2ccc(Cl)cc2Cl)C(c2cc(Br)ccc2O)C1 (stereo not given)
- EC50 [1]: 37.9 µM
- EC50 [2]: > 60 µM
- EC50 [4]: 45.2 µM

SMILES: CC1=NN(S(=O)(=O)c2ccc(C(F)(F)F)cc2)C(c2cc(Br)ccc2O)C1 (stereo not given)
- EC50 [1]: 30 µM
- EC50 [2]: 16.3 µM
- IC50 [3]: > 60 µM
- EC50 [4]: 22.1 µM

SMILES: CC1=NN(C(=O)CF)C(c2ccccc2O)C1 (stereo not given)
- EC50 [1]: 4.26 µM
- EC50 [2]: 8.6 µM
- IC50 [3]: 4 µM
- EC50 [4]: 9.41 µM
